In ChEMBL document CHEMBL5390259, “Structure Determination of Kahalalide Analogues Based on Metagenomic Analysis of a Bryopsis sp. Marine Green Alga” (J Nat Prod, 2023):

Experiment: Cytotoxicity against rat 3Y1 cells incubated for 2 days by MTT assay
Type: toxicity, cell-based

SMILES	IC50 at 2 days [µM]
C/C=C1\NC(=O)[C@H](Cc2ccccc2)NC(=O)[C@@H]([C@@H](C)CC)NC(=O)[C@@H]([C@@H](C)CC)NC(=O)[C@H](NC(=O)[C@@H](CC(C)C)NC(=O)[C@H](CCCN)NC(=O)[C@H]2CCCN2C(=O)[C@H](NC(=O)[C@@H](NC(=O)[C@@H](NC(=O)[C@H](NC(=O)CCC)[C@@H](C)O)C(C)C)C(C)C)C(C)C)[C@@H](C)OC(=O)[C@H](C(C)C)NC1=O	10
C/C=C1\NC(=O)[C@H](Cc2ccccc2)NC(=O)[C@@H]([C@@H](C)CC)NC(=O)[C@@H]([C@@H](C)CC)NC(=O)[C@H](NC(=O)[C@@H](CC(C)C)NC(=O)[C@H](CCCN)NC(=O)[C@H]2CCCN2C(=O)[C@H](NC(=O)[C@@H](NC(=O)[C@@H](NC(=O)[C@H](NC(=O)C=C(C)C)[C@@H](C)O)C(C)C)C(C)C)C(C)C)[C@@H](C)OC(=O)[C@H](C(C)C)NC1=O	7.4
